Structures can show the parent of a compound that is named as a salt.
What was measured:
human GHS-R1a = target: T1, human GHS-R1a (Homo sapiens, UniProt Q92847); assay: Agonistic activity by use of a cell line stably expressing human GHS-R1a (intracellular calcium increase); format: cell-based; conditions: hGHS-R1a/CHO cells, percent increase in intracellular calcium vs 100 nM ghrelin; read-out: GHS-R agonistic activity (EC50: nM)
T1 construct: expressed in transfected cells
Experimental: CHO-K1 cells were transfected with human GHS-R1a genes, to thereby provide cells stably expressing GHS-R1a (hGHS-R1a/CHO), and the agonistic activity of each compound was evaluated by use of the cells based on percent increase in intracellular calcium as an index.
The hGHS-R1a/CHO cells were inoculated at 6×10^4 cells/well in a 96-well plate (Clear bottom/Black plate, product of Corning), and cultured in Ham's F12 medium containing 10% fetal bovine serum at 37° C. and 5% CO2 for 18 hours. After culture, the medium was removed, and then the hGHS-R1a/CHO cells were cultured for two hours in a Hanks' balanced salt solution/HEPES (HBSS/HEPES, 100 μL) containing a calcium fluorescent indicator (4 μM Fluo-3AM, product of Dojin), 2 mM Probenecid, 0.1% Pluronic F-127, and 0.1% BSA, whereby the indicator was incorporated into the cells. After washing the cells, HBSS/HEPES (175 μL/well) containing 2 mM Probenecid and 0.1% BSA was added to the plate, and the fluorescence before and after addition of each test compound was determined by means of FLEXstation (Ex: 485 nm, Em: 525 nm, product of Molecular Devices). Each test compound was multi-fold diluted with dimethyl sulfoxide and then diluted with HBSS/HEPES containing 2 mM Probenecid, 0.04% Pluronic F-127, and 0.1% BSA, to thereby attain a final concentration of interest. The thus-diluted solution (25 μL/well) was added to the wells.
Agonistic activity(%)=(A−B)/(C−D)×100
A: Fluorescence intensity after addition of test compound
B: Fluorescence intensity before addition of test compound
C: Fluorescence intensity after addition of 100 nM ghrelin
D: Fluorescence intensity before addition of ghrelin

[1] = Bioavailability in male beagles; format: in vivo; conditions: beagle, dog, plasma, po; male beagles (dogs), intravenous or peroral 3 mg/kg, n=3; read-out: bioavailability (BA)
Experimental: (§1) A test compound was administered to male rats intravenously (1 or 3 mg/kg) or perorally (30 mg/kg), and to male beagles intravenously or perorally (3 mg/kg). After administration, blood was collected at designated times, to thereby obtain plasma samples.

[2] = Bioavailability in male rats; format: in vivo; conditions: rat, plasma, oral, intravenous 1 or 3 mg/kg, peroral 30 mg/kg, n=3, read-out: bioavailability (BA)
Experimental: as §1

[3] = Distribution in the brain (brain-to-plasma partition coefficient); format: in vivo; conditions: rat, male rats, intravenous bolus then constant-rate infusion, steady state
Experimental: Under anesthesia, a test drug was intravenously administered to male rats (1 to 4 mg/kg) and then intravenously administered (14 to 95 μg/kg) at a constant rate. At two hours after starting the infusion, when a steady state was thought to have been reached, the whole blood was collected from each rat and the brain was excised. The concentrations of test drug in brain samples and plasma samples were determined using LC-MS/MS, and the brain-to-plasma partition coefficient (Kp value) was calculated (n=6 or 9).

beagles = assay: Toxicity test: single oral administration to dogs; format: in vivo; conditions: male beagles, single peroral
Experimental: An encapsulated test drug was forcedly administered to beagles, and acute toxicity of the drug was studied.
Compound of Example 34a was singly perorally administered to male beagles at a dose of 30 and 100 mg/kg. […] General conditions of the beagles were observed, and hematologic and blood biochemical tests were carried out.

[4] = test system: model rats with IL-1β-induced cachexia; assay: Improvement of cachexia induced by IL-1β; format: in vivo; conditions: SD rats, rmIL-1β into cerebral ventricle, peroral 100 mg/kg
Text: By use of model rats with IL-1β-induced cachexia, the effects of a test compound on ameliorating reduction in body weight and in food intake were examined.
SD rats (male, 8-week old, 270 to 340 g, Japan Charles River) were conditioned in a cage (one rat/cage), and were allowed water and a diet (CRF-1, product of Oriental Yeast Co., Ltd.) ad libitum. The illumination conditions employed in the house were as follows: 10:30 to 22:30 (dark) and 22:30 to 10:30 (light).
An osmotic pump (Mini-Osmotic Pump Model 2001, product of ALZET, filled with saline) was connected to a canula, and the canula was inserted into the cerebral ventricle of a rat. The rats obtained were conditioned for three days, and the osmotic pump was changed to another osmotic pump filled with recombinant mouse IL-1β (rmIL-1β). By means of the pump, rmIL-1β was continuously injected into the cerebral ventricle ([…]), to thereby induce cachexia. Two days after starting of injection of IL-1β, a test compound dissolved in 0.5% methylcellulose solution was perorally administered to each rat just before switching-off the light. During the period of administration of the test compound, the body weight and the food intake were measured every 24 hours.

CYP3A4 = target: T2, CYP3A4 (Homo sapiens, UniProt P08684); assay: CYP3A4 inhibitory activity, human liver microsomes, midazolam hydroxylation; format: in vitro ADME
T2 construct: determined by use of human liver microsomes based on the midazolam hydroxylation activity as an index; from tissue; host or cells: human liver microsomes
T2 sequence (P08684 whole entry): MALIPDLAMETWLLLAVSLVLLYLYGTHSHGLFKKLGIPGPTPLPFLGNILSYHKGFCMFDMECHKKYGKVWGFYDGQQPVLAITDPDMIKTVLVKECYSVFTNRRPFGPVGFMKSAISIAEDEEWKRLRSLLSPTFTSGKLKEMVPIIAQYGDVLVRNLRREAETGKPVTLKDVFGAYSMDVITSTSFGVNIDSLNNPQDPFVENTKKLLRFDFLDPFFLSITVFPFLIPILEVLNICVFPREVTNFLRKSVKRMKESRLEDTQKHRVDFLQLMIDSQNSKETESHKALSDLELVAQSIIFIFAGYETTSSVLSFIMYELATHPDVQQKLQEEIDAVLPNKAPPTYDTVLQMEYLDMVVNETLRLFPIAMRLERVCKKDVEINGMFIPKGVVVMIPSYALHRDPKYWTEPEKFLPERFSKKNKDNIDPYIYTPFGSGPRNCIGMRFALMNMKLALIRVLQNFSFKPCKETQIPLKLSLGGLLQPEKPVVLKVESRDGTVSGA
Experimental: The in vitro CYP3A4 inhibitory activity was determined by use of human liver microsomes based on the midazolam hydroxylation activity as an index, and the Ki values were calculated.

T1 sequence (Q92847 whole entry): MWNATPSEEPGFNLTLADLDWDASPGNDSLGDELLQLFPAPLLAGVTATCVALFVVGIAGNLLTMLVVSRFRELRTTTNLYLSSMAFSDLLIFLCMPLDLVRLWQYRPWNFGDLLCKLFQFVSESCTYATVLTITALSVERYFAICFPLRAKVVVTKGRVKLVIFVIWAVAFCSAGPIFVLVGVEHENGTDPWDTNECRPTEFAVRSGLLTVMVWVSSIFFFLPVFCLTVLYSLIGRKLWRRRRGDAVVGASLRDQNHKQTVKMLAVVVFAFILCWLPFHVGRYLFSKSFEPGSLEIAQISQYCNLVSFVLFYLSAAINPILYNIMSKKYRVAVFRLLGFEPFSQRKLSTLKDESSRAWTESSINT

CN(C)N(C)C(=O)[C@@]1(Cc2ccccc2)CCCN(C(=O)[C@@H](Cc2c[nH]c3ccccc23)NC(=O)C(C)(C)N)C1 [Anamorelin hydrochloride, anamorelin hydrochloride, reference compound]
EC50 (human GHS-R1a): 0.15 nM
bioavailability [1]: 19%
bioavailability [2]: 21%
Kp at 2 h [3]: 0.42
acute toxicity, general conditions (beagles; 30 mg/kg): serious anomalous disorders in general conditions such as vomiting, infrequent pulse, tremble, and disorders in walking

CC(C)C[C@@H](NC(=O)C(C)(C)N)C(=O)NC1Cc2cccc(N3CCCC3=O)c2N(Cc2ccsc2)C1=O (stereo partly drawn) [Example 34a, (2R)-2-(2-amino-2-methylpropanamido)-4-methyl-N-[2-oxo-8-(2-oxopyrrolidin-1-yl)-1-(thiophen-3-ylmethyl)-1,2,3,4-tetrahydroquinolin-3-yl]pentanamide hydrochloride]
reduction in body weight caused by IL-1β [4]: significantly suppressed
reduction in food intake caused by IL-1β [4]: significantly suppressed
EC50 (human GHS-R1a): 0.38 nM
bioavailability [1]: 84%
Ki (CYP3A4): 86000 nM
bioavailability [2]: 35%
Kp at 2 h [3]: 0.06
acute toxicity, general conditions (beagles; maximum dose 100 mg/kg): only slight vomiting

CCN(CC)c1cccc2c1N(Cc1ccccn1)C(=O)C(NC(=O)[C@@H](CC(C)C)NC(=O)CC(C)(C)N)C2 (stereo partly drawn) [Example 47, (2R)-2-(3-Amino-3-methylbutanamido)-N-[8-(diethylamino)-2-oxo-1-(pyridin-2-ylmethyl)-1,2,3,4-tetrahydroquinolin-3-yl]-4-methylpentanamide hydrochloride]
EC50 (human GHS-R1a): 18.2 nM

CC(C)C[C@@H](NC(=O)C(C)(C)N)C(=O)NC1Cc2cccc(N3C(=O)CCC3O)c2N(Cc2ccsc2)C1=O (stereo partly drawn) [Example 66, (2R)-2-(2-amino-2-methylpropanamido)-N-(8-(2-hydroxy-5-oxopyrrolidin-1-yl)-2-oxo-1-(thiophen-3-ylmethyl)-1,2,3,4-tetrahydroquinolin-3-yl)-4-methylpentanamide]
EC50 (human GHS-R1a): 0.45 nM
